According to patent publication US20240003872A1, “METHODS FOR ASSAYING AND MEASURING THE EFFICACY OF ANTI-NAUSEA COMPOUNDS” (priority 2020, published 2024):
Entries after “also recorded” stand apart in the source; their conditions may differ.

Legend:
[1] = system: human intestinal smooth muscle cells (HISMCs); experiment: HISMC/collagen matrix cell contraction assay; assay type: cell-based
Description: This assay was used to study the ability of […] to reorganize and contract in a collagen matrix. All procedures were done accordingly to protocols described by Dr. Alexander (5-HT3 dependent smooth muscle contraction assay, revised Aug. 30, 2012). The assay consisted in the preparation of collagen solution and in the polymerization and release of […]/collagen matrices. For 12 mL of collagen/[…], 15.0 mg of rat tail collagen was dissolved in 3.2 mL of cold 0.012M HCL. The solution was placed for 30 min in a rocker machine for gently agitation to avoid introducing bubbles. Then, 0.8 mL of cold PBS was added to the tube, mixed well, and kept on ice. The pH of the collagen solution was quickly titrated with 0.5 M NaOH to 7.45, and monitored by pH strips. The final collagen concentration was 1.25 mg/mL. The neutralized cold collagen solution was mixed with 12 mL of cold SMCM/1.5% dialyzed FBS containing […] at desire cell density (1×10^5 cells/mL). 0.5 mL of collagen/[…] mixture was added per well in 24-well plates and was incubated for 1 h at 37° C., 5% CO2. After collagen polymerization, 0.5 mL of culture medium with or without two-time concentration of drug treatments was added atop each collagen gel lattice. The polymerized collagen matrix containing […] was released from the edges of the well with a sterilized heat-blunted Pasteur pipette tip to allow them to float in culture medium, and contraction occurred with or without agonist addition in the absence of external mechanical load. The collagen gel size change (contraction index) was measured by morphometric analysis at various times (0, 24, 48, and 72 h). The culture plates were analyzed in triplicate and monitored at 24 h intervals. At the end of each time point, the plates were scanned via an Epson flatbed scanner.

[2] = system: college students with self-rated high susceptibility to motion sickness; conditions: 940 mg ginger root or 100 mg Dramamine 25-30 minutes prior to test; P < .001; cited from earlier work
[3] = system: women after laparascopic gynaecological surgery; conditions: ginger, 1.25 mg droperidol, vs placebo; cited from earlier work
[4] = system: Women undergoing gynecological surgery; conditions: 1.0 g ginger or 10 mg metochlopramide orally prior to surgery; P < .05; cited from earlier work
[5] = system: women after laparascopic gynaecological surgery; conditions: post-operative; given one hour prior to anaesthesia; placebo 41%; cited from earlier work

SMILES: Cl.NCCc1c[nH]c2ccc(O)cc12 [5-HT, 5-Hydroxytryptamine hydrochloride]
- contraction of HISMC gels induced by agonist ([1]; 5-HT at 10^−7M, 10^−8M and 10^−9M): induced dose and time dependent contraction

SMILES: C[C@@H](O[C@H]1OCCN(Cc2n[nH]c(=O)[nH]2)[C@H]1c1ccc(F)cc1)c1cc(C(F)(F)F)cc(C(F)(F)F)c1 [Aprepitant]
- effect on HISMC/collagen gel contraction ([1]; different concentrations, with or without 5-HT3): attenuated collagen gel contraction only at high concentrations, 10^−4 M and not significantly

SMILES: Cc1nccn1CC1CCc2c(c3ccccc3n2C)C1=O (centres unmarked) [Ondansetron]
- effect on 5-HT induced HISMC/collagen matrix contraction ([1]; with 5-HT (10^−7M), different concentrations, 0-72 h): reduced; also recorded: inhibited HISMCs contractions in a concentration- and time-dependent manner
- effect on HISMC/collagen matrix contraction without 5-HT ([1]; without 5-HT, different concentrations, 0-72 h): inhibited HISMCs contractions in a concentration- and time-dependent manner

SMILES: CN(C)CCOC(c1ccccc1)c1ccccc1 [diphenhydramine]
- reducing vection induced motion sickness versus placebo (time in induced motion) [2]: more effective than dried chickweed herb placebo

SMILES: O=C(CCCN1CC=C(n2c(=O)[nH]c3ccccc32)CC1)c1ccc(F)cc1 [droperidol]
- decrease in nausea or vomiting post-surgery [3]: no differences

SMILES: CCN(CC)CCNC(=O)c1cc(Cl)c(N)cc1OC [metochlopramide]
- effectiveness versus placebo for post-operative nausea and vomiting control [4]: significantly more effective than placebo
- patients nauseated [5]: placebo, 27%
